Values after ≈ are worked out from the molar mass of the structure shown. Values joined by “and” are separate entries in the source; they are usually repeats but may differ in a detail not shown here. Identical values can stand only once.
Assays:
[1] = Cytotoxicity colorimetric assay, HepG2; assay type: cell-based, human; set-up: Cytotoxicity HepG2, percent printed in parentheses after the concentration: concentration or dose not given beside the values; details: human, HepG2 cells, one hour in serum-free media
Summary of the method: (§1)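 HepG2 cells (3×10^4/well, MEM + 10% FBS) and NIH/3T3 cells (2×10^4/well, DMEM + 10% BCS) were exposed to compound for 1 h in serum-free medium. Viability read by tetrazolium-to-formazan bioreduction after return to serum medium; EC50 from a four-parameter logistic fit.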

blood pressure = assay: Hemodynamic responses in the anesthetized rat; assay type: in vivo; details: anesthetized rat, 8 or 16 mg/kg 10 minute IV infusion after heparin 50 U/kg
Excerpt: As a key safety issue for cationic compounds is reduction in blood pressure shortly after administration. To address this hemodynamic issue, a medicinal chemistry strategy with literature precedence of introducing carboxylic acid functionality was applied to the salicylamide series of compounds. […] Surgically prepared animals were purchased from Charles River Laboratories, Raleigh, N.C. Animals were anesthetized on the day of experiment with isoflurane (1.8-4%). Blood pressure and heart rate data were collected on a Grass Polygraph recorder. The test articles, vehicle or protamine dosing preparations were administered once to each rat by a 10 minute intravenous infusion three minutes following a single intravenous injection of heparin (50 U/kg). Each animal received a dose volume of 2.0 mL/kg. Blood pressure was recorded prior to treatment for approximately 1 minute and immediately following heparin, immediately following vehicle, test articles or protamine and at 5, 15, 30, and 60 minutes following dosing. The doses of test agent were either 8 mg/kg or 16 mg/kg. The differences in hemodynamic effect at 16 mg/kg were especially profound (FIG. 5).

[2] = Cytotoxicity colorimetric assay, NIH/3T3; assay type: cell-based, mouse; details: mouse, NIH/3T3 cells, one hour in serum-free media
Summary of the method: as §1

fondaparinux [3] = assay: FXa amidolytic assay (Example 10), fondaparinux; details: for EC50: read-out: Fondap FXa EC50, fondaparinux 0.02 μg/mL, human antithrombin, bovine Factor Xa
Experimental: (§3) Two μl of test agent are added (range between 0.01 and 23 ug/ml) and incubated for 5 minutes at 23° C. Bovine Factor Xa was added to a final concentration of 0.636 nkat/mL and incubated for a further 10 minutes at 23° C.

tinzaparin = assay: FXa amidolytic assay (Example 10), tinzaparin; details: read-out: Tinzap FXa EC50; tinzaparin 0.1 ug/ml; human antithrombin, bovine Factor Xa
Experimental: as §3

enoxaparin = assay: FXa amidolytic assay (Example 10), enoxaparin; details: read-out: Enox FXa EC50; enoxaparin 0.1 ug/ml; human antithrombin, bovine Factor Xa
Experimental: as §3

Unfractionated heparin = assay: aPTT clotting assay, UFH 0.4 U/mL in plasma (Example 10); assay type: biochemical; details: unfractionated heparin 0.4 U/mL in plasma; aPTT clotting
Experimental: aPTT clotting Assay: Unfractionated heparin was mixed with plasma at a final concentration of 0.4 U/mL (or concentration which increases aPTT time to between 120 and 300 seconds). […] The ACL Elite Hemostasis analyzer (Beckman Coulter™) was used to add aPTT reagent (HemosIL SynthASil) to supplemented plasma. Clotting was initiated by addition of CaCl2 and time to clot was recorded.

in vitro = assay type: cell-based, human; details: human, pH 7.4
Summary of the method: (§2)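 Pooled human red cells, washed and diluted from a 0.22% stock suspension in TBS pH 7.4, were shaken with two-fold dilutions (1000 to 0.48 µg/ml) for 1 h at 37 °C. Released hemoglobin in the supernatant was read at OD405. EC50 came from a four-parameter logistic fit, with melittin as positive control.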

[4] = tested on: isolated human erythrocytes; assay: cells; assay type: cell-based; details: Homo sapiens, Erythrocyte, 1 h, human RBC, 1 hour at 37° C.; read-out: Hemolysis EC50
Summary of the method: as §2

HepG2 cells = assay: Cytotoxicity colorimetric assay, HepG2; assay type: cell-based, human; set-up: Cytotoxicity HepG2, percent printed in parentheses after the concentration: concentration or dose not given beside the values; details: at the concentration given
Summary of the method: as §1

NIH/3T3 cells = assay: Cytotoxicity colorimetric assay, NIH/3T3; assay type: cell-based, mouse; details: at the concentration given
Summary of the method: as §1

UFH = assay: FXa amidolytic assay (Example 10), UFH; details: read-out: Heparin FXa uM EC50; UFH 0.03 units/mL; human antithrombin, bovine Factor Xa
Experimental: as §3

fondaparinux [5] = assay: In vivo neutralization of fondaparinux in the rat
Experimental: Compounds were selected to test fondaparinux neutralization in vivo. Rats were pre-treated with fondaparinux administered by IV injection at 0.5 mg/kg. The rats were then treated with a single IV injection of saline, protamine or the PMX compound. Blood was collected via the orbital sinus from three rats per group at the following time points: pre-dose, 1, 3, 10, 30 and 60 min. Plasma samples were prepared for analysis of anti-factor Xa activity using an AMEX Destiny Plus Coagulation Analyzer.

Structure (SMILES)	EC50 at 1 h [1] [µg/mL]	hemodynamic response profile (blood pressure)	EC50 at 1 h [2] [µg/mL]	EC50 (fondaparinux [3])	EC50 (tinzaparin)	EC50 (enoxaparin)	EC50 (Unfractionated heparin)	hemolysis at 1 h (in vitro) [%]	EC50 [4] [µg/mL]	Cytotoxicity HepG2, percent printed in parentheses after the concentration (HepG2 cells) [%]	Cytotoxicity 3T3, percent printed in parentheses after the concentration (NIH/3T3 cells) [%]	EC50 (UFH) [µM]	Potent LMWH-antagonists with superior anti-fondaparinux activity (summary) (fondaparinux [3])	reduction of Factor Xa (anti-factor Xa) levels after fondaparinux (fondaparinux [5]; fondaparinux 0.5 mg/kg IV, test agent 2 and 5 mg/kg IV)	in vivo efficacy versus fondaparinux (summary) (fondaparinux [5]; in vivo)
COc1ccc(NC(=O)[C@H](CCCCN)NC(=O)c2cc(NC(=O)[C@H](CCCCN)NC(=O)c3cc(NC(=O)[C@H](CCCCN)NC(=O)c4cc(NC(=O)[C@@H](N)CCCCN)ccc4OC)ccc3OC)ccc2OC)cc1C(=O)NCCC(=O)O [Compound 261]	> 1000	did not show an improved hemodynamic effect profile	> 1000	5980 nM and 6260 nM	232 nM and 214 nM	344 nM and 294 nM	1530 nM and 2150 nM								
COc1ccc(NC(=O)[C@H](CCCNC(=N)N)NC(=O)c2cc(NC(=O)[C@H](CCCNC(=N)N)NC(=O)c3cc(NC(=O)[C@H](CCCNC(=N)N)NC(=O)c4cc(NC(=O)[C@@H](N)CCCNC(=N)N)ccc4OC)ccc3OC)ccc2OC)cc1C(=O)NCC(=O)O [Compound 284]				390 nM	138 nM	144 nM	1560 nM	50	1000 (≈ 771 µM)						
COc1ccc(NC(=O)[C@H](CCCNC(=N)N)NC(=O)c2cc(NC(=O)[C@H](CCCNC(=N)N)NC(=O)c3cc(NC(=O)[C@H](CCCNC(=N)N)NC(=O)c4cc(NC(=O)[C@@H](N)CCCNC(=N)N)ccc4OC)ccc3OC)ccc2OC)cc1C(=O)N[C@@H](Cc1c[nH]c2ccccc12)C(=O)O [Compound 309]	1000 (≈ 701 µM)		1000 (≈ 701 µM)	120 nM	137 nM	131 nM	2270 nM		~100 (≈ 70.1 µM)	50	50	0.301			
COc1ccc(NC(=O)[C@H](CCCNC(=N)N)NC(=O)c2cc(NC(=O)[C@H](CCCNC(=N)N)NC(=O)c3cc(NC(=O)[C@H](CCCNC(=N)N)NC(=O)c4cc(NC(C)=O)ccc4OC)ccc3OC)ccc2OCC(=O)O)cc1C(=O)N[C@@H](Cc1c[nH]c2ccccc12)C(N)=O [Compound 312]				120 nM	169 nM	152 nM	> 10000 nM	25	1000 (≈ 738 µM)			0.295			
COc1ccc(NC(=O)[C@H](CCCNC(=N)N)NC(=O)c2cc(NC(=O)[C@H](CCCNC(=N)N)NC(=O)c3cc(NC(=O)[C@H](CCCNC(=N)N)NC(=O)c4cc(NC(=O)[C@@H](N)CCCNC(=N)N)ccc4OC)ccc3OCC(=O)O)ccc2OC)cc1C(=O)N[C@@H](Cc1c[nH]c2ccccc12)C(N)=O [Compound 313]				117 nM	115 nM	107 nM	3810 nM	20	~100 (≈ 68.1 µM)			0.196			
COc1ccc(NC(=O)[C@H](CCCNC(=N)N)NC(=O)c2cc(NC(=O)[C@H](CCCNC(=N)N)NC(=O)c3cc(NC(=O)[C@H](CCCNC(=N)N)NC(=O)c4cc(NC(C)=O)ccc4OC)ccc3OCC(=O)O)ccc2OC)cc1C(=O)N[C@@H](Cc1c[nH]c2ccccc12)C(N)=O [Compound 314]				265 nM	199 nM	208 nM	> 10000 nM	25	1000 (≈ 738 µM)			0.295			
COc1ccc(NC(=O)[C@@H](CCCNC(=N)N)NC(=O)c2cc(NC(=O)[C@@H](CCCNC(=N)N)NC(=O)c3cc(NC(=O)[C@@H](CCCNC(=N)N)NC(=O)c4cc(NC(=O)[C@H](N)CCC(=O)O)ccc4OC)ccc3OC)ccc2OC)cc1C(N)=O [Compound 322]				417 nM	158 nM	195 nM	2110 nM	50	1000 (≈ 826 µM)						
COc1ccc(NC(=O)[C@@H](CCCNC(=N)N)NC(=O)c2cc(NC(=O)[C@@H](CCCNC(=N)N)NC(=O)c3cc(NC(=O)[C@@H](CCCNC(=N)N)NC(=O)c4cc(NC(=O)[C@H](N)Cc5c[nH]c6ccccc56)ccc4OC)ccc3OC)ccc2OCC(=O)O)cc1C(N)=O [Compound 329]				371 nM	203 nM	202 nM	7910 nM	50	18 (≈ 13.7 µM)						
COc1ccc(NC(=O)[C@H](CCCCN)NC(=O)c2cc(NC(=O)[C@H](CCCCN)NC(=O)c3cc(NC(=O)[C@H](CCCCN)NC(=O)c4cc(NC(=O)[C@@H](N)Cc5c[nH]c6ccccc56)ccc4OC)ccc3OC)ccc2OC)cc1C(=O)N[C@@H](Cc1c[nH]c2ccccc12)C(=O)O [Compound 330]				218 nM	182 nM	169 nM	> 10000 nM	75	5.4 (≈ 3.94 µM)						
COc1ccc(NC(=O)[C@@H](CCCNC(=N)N)NC(=O)c2cc(NC(=O)[C@@H](CCCNC(=N)N)NC(=O)c3cc(NC(=O)[C@@H](CCCNC(=N)N)NC(=O)c4cc(NC(=O)[C@H](N)Cc5c[nH]c6ccccc56)ccc4OC)ccc3OC)ccc2OC)cc1C(=O)N[C@H](Cc1c[nH]c2ccccc12)C(=O)O [Compound 331]				161 nM	184 nM	155 nM	> 10000 nM	50	~100 (≈ 68.7 µM)						
COc1cc(OC)c(C(=O)N[C@H]2CC[C@H](NC(=O)c3ccc(OCCCCCNC(=N)N)cc3OCCCCCNC(=N)N)CC2)cc1C(=O)N[C@H]1CC[C@H](NC(=O)c2ccc(OCCCCCNC(=N)N)cc2OCCCCCNC(=N)N)CC1 [Compound 336]	505 (≈ 421 µM)		390 (≈ 325 µM)	91 nM and 63 nM	133 nM and 84 nM	79 nM and 91 nM	1430 nM and 1220 nM		> 1000				superior anti-fondaparinux activity	significant reductions in anti-Factor Xa activity	in vivo efficacy versus fondaparinux
COC(=O)c1cccc(C(=O)N[C@@H](CCCCN)C(=O)Nc2ccc(OC)c(C(=O)N[C@@H](CCCCN)C(=O)Nc3ccc(OC)c(C(=O)N[C@@H](CCCCN)C(=O)Nc4ccc(OC)c(C(=O)N[C@@H](CCCCN)C(=O)Nc5ccc(OC)c(C(N)=O)c5)c4)c3)c2)c1 [Compound 340]	1000 (≈ 776 µM)		1000 (≈ 776 µM)	208 nM	115 nM	119 nM	720 nM			60	60	0.292			

— US20110178104A1, “Anti-Heparin Compounds” (POLYMEDIX INC., priority 2010, published 2011)
